For series [1], the system named is Trypsin. The series is described as follows: Chromogenic substrate assay, Ki determination, Trypsin. The series is classed as biochemical, human. On the procedure: (§1) The inhibitor (I) constants (Ki) were determined for the inhibition of a series of human enzymes (FXa, thrombin, trypsin, plasmin, protein Ca, streptokinase, tPA, and urokinase) by each compound. Chromogenic substrate assays were performed using a Labsystems IEMS (Cergy Pontoise, France) microtiter plate reader. In each assay, the compound was tested at a minimum of seven concentrations in duplicate to obtain an inhibition curve. Assays were performed according to the following general procedure. In a 96-well microtiter plate, 25 μL of compound, inhibitor solution or buffer was added to 50 μL of substrate. A volume of 25 μL of enzyme solution was added just before the plate was placed in the microtiter plate reader for 1 h at 37 °C. The hydrolysis of the substrate yields p-nitroaniline, which was continuously monitored spectrophotometrically at 405 nm. Data were collected and the initial rate of substrate hydrolysis [Vo (mOD/minute)] was calculated. Following Michaelis-Menten kinetics, the affinity of the enzyme for the substrate, in the absence of the inhibitor (Km) and in the presence of an inhibitor (Kp), was determined to be the negative inverse x-intercept of Lineweaver–Burk plots. The dissociation constant for inhibition (Ki) was calculated using the following equation: Ki = (Km·[I])/(Kp − Km) as described by Williams and Morrison[40].

For series [2], the system named is Streptokinase (Homo sapiens). The series is described as follows: Chromogenic substrate assay, Ki determination, Streptokinase. The series is classed as biochemical. Here is the method: as §1
The target in series [3] is T1, α-Thrombin (Homo sapiens, UniProt P00734).
T1 construct: FXa converts prothrombin to thrombin; purchased Haematologic Technologies (Essex Junction, VT, USA)
The series is described as follows: Chromogenic substrate assay, Ki determination, α-Thrombin. Format: biochemical. Here is the method: as §1

Series [4] has as its target Plasmin (Homo sapiens, UniProt P00747). Description: Chromogenic substrate assay, Ki determination, Plasmin. Format: biochemical. On the procedure:
as §1

In series [5] the test system is C57BL/6 mice. Description: Tail bleeding time. The series is classed as in vivo. As to conditions: tail-cutting assay, mean ± SD, n = 10. Here is the method: Figure 4 Effects of compounds 1–4 on clotting and bleeding time. (A) One hour after administration (intravenous injection) of compound 1 (white box), 2 (light gray box), 3 (dark gray box), or 4 (black box), blood was collected from the mice and platelet-poor plasma (PPP) was obtained by centrifugation at 2,000 × g for 10 min at room temperature to test ex vivo activated partial thromboplastin time (aPTT). (B) Each group received a daily intravenous injection of the indicated compound for four consecutive days. Fifteen minutes after the last administration, blood samples were collected and in vivo aPTT was measured. (C) Fifteen minutes after administration of each compound or aspirin (4.5 or 9 mg/kg for 30 min) or the vehicle, tail tips (3 mm long) were cut from each mouse, and the remaining tail was immediately immersed into saline at 37 °C. Accumulated bleeding times (including periods of re-bleeding) were recorded. D = 0.2% DMSO used as the vehicle control. Data are presented as means ± SD of three independent experiments. *p < 0.05 vs. vehicle alone, analyzed by one-way ANOVA, followed by Tukey multiple comparison testing.
To assess bleeding risk incurred by compounds 1–4, we measured bleeding time in mice treated with each compound (up to 30 µM/mouse) by using a tail-cutting assay; the concentration used was three-fold higher than the doses used for the in vivo anti-thrombotic studies. Aspirin-treated mice (9 mg/kg) served as positive controls. […] However, the bleeding time in mice treated with compounds 1–4 was shorter than that observed in mice treated with aspirin ([…], mean ± SD, n = 10). The dose required to avoid thrombus formation and to protect against paralysis or death in mice was determined to be 5 µM per mouse (Fig. 7C).
Tail bleeding times were measured using the method described by Dejana et al.[37]. Briefly, C57BL/6 mice were fasted overnight prior to the experiments. […] after the i.v. administration of each compound, the tails of the mice were transected […] from their tips. Bleeding time was defined as the time elapsed until bleeding stopped. Bleeding times that exceeding 15 min were recorded as 15 min.

Series [6] deals with Urokinase (Homo sapiens, UniProt P00749). The series is described as follows: Chromogenic substrate assay, Ki determination, Urokinase. Format: biochemical. On the procedure: as §1
The target of series [7] is T2, FXa (Homo sapiens, UniProt P00742).
T2 construct: purchased Haematologic Technologies (Essex Junction, VT, USA)
The series is described as follows: Chromogenic substrate assay, Ki determination, Factor Xa. The series is classed as biochemical. On the procedure: as §1

Series [8] addresses Protein Ca (Homo sapiens, UniProt P04070). Description: Chromogenic substrate assay, Ki determination, Protein Ca. The series is classed as biochemical. Here is the method:
as §1

Consider 1 compound from PMC5554137, “Evaluation of novel factor Xa inhibitors from Oxya chinensis sinuosa with anti-platelet aggregation activity” (Scientific Reports, 2017).

Protein Ca, sequence (P04070 212-461 limits assumed): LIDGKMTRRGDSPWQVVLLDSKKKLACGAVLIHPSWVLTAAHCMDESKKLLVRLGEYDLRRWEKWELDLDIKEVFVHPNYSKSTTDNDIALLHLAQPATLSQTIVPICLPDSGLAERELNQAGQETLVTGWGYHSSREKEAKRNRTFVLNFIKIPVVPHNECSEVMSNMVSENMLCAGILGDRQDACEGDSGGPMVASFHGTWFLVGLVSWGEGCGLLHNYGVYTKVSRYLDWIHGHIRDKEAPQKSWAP
Protein Ca, sequence (P04070 43-197 limits assumed): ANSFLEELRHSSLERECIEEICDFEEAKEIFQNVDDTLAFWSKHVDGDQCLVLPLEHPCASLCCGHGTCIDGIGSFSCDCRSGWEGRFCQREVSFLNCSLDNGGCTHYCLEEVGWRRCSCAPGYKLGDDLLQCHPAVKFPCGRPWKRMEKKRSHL
Plasmin, sequence (P00747 581-810 limits assumed): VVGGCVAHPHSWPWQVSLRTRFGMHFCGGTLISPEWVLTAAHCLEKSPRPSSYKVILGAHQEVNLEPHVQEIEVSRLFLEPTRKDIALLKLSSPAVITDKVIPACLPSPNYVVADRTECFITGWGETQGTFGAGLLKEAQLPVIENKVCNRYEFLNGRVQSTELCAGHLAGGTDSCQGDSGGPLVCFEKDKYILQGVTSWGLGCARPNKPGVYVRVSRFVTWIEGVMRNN
Plasmin, sequence (P00747 97-580 limits assumed): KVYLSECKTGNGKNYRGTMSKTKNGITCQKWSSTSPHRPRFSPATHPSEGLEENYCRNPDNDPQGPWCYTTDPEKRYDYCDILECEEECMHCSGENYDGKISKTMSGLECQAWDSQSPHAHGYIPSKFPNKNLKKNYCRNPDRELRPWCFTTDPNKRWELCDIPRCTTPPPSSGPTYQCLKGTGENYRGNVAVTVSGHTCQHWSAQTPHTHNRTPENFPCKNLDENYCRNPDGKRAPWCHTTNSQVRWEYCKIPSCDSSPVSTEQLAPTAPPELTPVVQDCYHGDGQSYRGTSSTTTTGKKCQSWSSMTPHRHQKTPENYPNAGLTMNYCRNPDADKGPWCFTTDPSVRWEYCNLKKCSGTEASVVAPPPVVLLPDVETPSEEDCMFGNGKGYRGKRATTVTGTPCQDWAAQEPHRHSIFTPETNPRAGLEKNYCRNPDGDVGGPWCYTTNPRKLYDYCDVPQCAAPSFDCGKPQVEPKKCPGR
Streptokinase (Homo sapiens), sequence (P00747 581-810 limits assumed): as the sequence (P00747 581-810 limits assumed) above
T2 sequence (P00742 235-488 limits assumed): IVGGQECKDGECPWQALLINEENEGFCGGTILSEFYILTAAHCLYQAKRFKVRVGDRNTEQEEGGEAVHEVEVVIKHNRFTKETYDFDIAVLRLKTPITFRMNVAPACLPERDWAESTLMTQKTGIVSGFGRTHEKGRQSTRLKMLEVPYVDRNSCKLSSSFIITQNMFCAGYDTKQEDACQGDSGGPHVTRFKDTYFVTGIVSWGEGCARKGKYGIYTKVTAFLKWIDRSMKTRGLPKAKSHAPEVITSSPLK
T2 sequence (P00742 41-179 limits assumed): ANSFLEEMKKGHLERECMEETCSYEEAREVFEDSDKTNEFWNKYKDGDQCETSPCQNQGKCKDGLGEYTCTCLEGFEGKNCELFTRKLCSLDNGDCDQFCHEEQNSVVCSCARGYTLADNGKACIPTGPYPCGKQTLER

Consider `CC(=O)NCCc1ccc2c(c1)O[C@H](c1ccc(O)c(O)c1)[C@H](NC(C)=O)O2` [Compound 1, (2 R,3 R)-2-(3′,4′-dihydroxyphenyl)-3-acetylamino-7-(N-acetyl-2″-aminoethyl)-1,4-benzodioxane], for which the “Ratio = Ki enzyme/Ki Factor Xa, Trypsin” value in series [1] is greater than 100. Besides, the Ki in series [1] (substrate S-2222) was greater than 300 µM; in series [2] (substrate S-2251) it was greater than 300 µM; in series [3] (substrate S-2238) it was greater than 300 µM; in series [4] (substrate S-2251) it was greater than 300 µM; in series [6] (substrate S-2444), greater than 300 µM; in series [7] (substrate S-2765 (Table 3), mean ± SD (n = 5)), 2.96 ± 0.25 µM. In series [8] (substrate S-2366), this compound gave an inhibition constant (Ki) greater than 300 µM. The “Ratio = Ki enzyme/Ki Factor Xa, Streptokinase” value in series [2] was greater than 100. Also, in series [3], the “Ratio = Ki enzyme/Ki Factor Xa, α-Thrombin” value is given as greater than 100. In series [4], the “Ratio = Ki enzyme/Ki Factor Xa, Plasmin” value is greater than 100. Also, the bleeding time in series [5] (mice treated with 10 µM) is reported as 13.5 ± 1.3 min; in series [5] (mice treated with 30 µM), 14.3 ± 1.2 min. Further, the “Ratio = Ki enzyme/Ki Factor Xa, Urokinase” value in series [6] is greater than 100. For the same compound, in series [7], the “Ratio = Ki enzyme/Ki Factor Xa, Factor Xa” value stood at 1. Further, the “Ratio = Ki enzyme/Ki Factor Xa, Protein Ca” value in series [8] is on record as greater than 100.
